# Earlier results in EP0097942A1, “Antiallergic pyrazine-bis(2-oxoglycine) compounds” (THE DOW CHEMICAL COMPANY, priority 1982, dated 1984).
# Read-outs that look alike come from different tables or passages of the source.
# System: PCA reactions
# Conditions: general statement on reference drug
smiles,measurement,setting,value
O=C(O)c1cc(=O)c2c(OCC(O)COc3cccc4oc(C(=O)O)cc(=O)c34)cccc2o1 [Disodium cromoglycate],activity in PCA test,administered i.p.,active
same,activity in PCA test,administered orally,not orally
